How the values were obtained:
TNFα = assay: IRAK4 Monocyte TNFα Cell Based Assay (LPS-stimulated, TR-FRET TNFα detection); set-up: species or system human; conditions: Homo sapiens, Monocyte, human monocytes, LPS-stimulated; Table 2 second part (compounds 33-343); read-out: EC50 MONO TNF HTRF
Experimental: IRAK4 Monocyte TNFα Cell Based Assay Procedure:
The cell suspension was then plated at a density of 5,000 cells/well onto black 384 well Greiner clear bottom plates. Plates were pre-spotted with test compounds and serially diluted in DMSO where 40 nL/well were delivered using the Echo 550 acoustic liquid dispenser (Labcyte®) for a final DMSO concentration of 0.1%. Plated cells were treated with compound for 1 hour at 37° C. Cells were then stimulated with 50 pg/ml of LPS (Sigma) excluding outside columns of plate used for unstimulated cell control wells. Cells were incubated for an additional 4 hours at 37° C. Cells were then spun out of the media and 5 μl of sample were taken and analyzed for total TNFα content using the TR-FRET Human TNFα detection system (CisBio). This system utilizes two labeled antibodies (cryptate and XL665) that bind to two different epitopes of the TNFα molecule and produce FRET signal proportional to the concentration of TNFα in the sample. Detection antibodies are mixed 50:50 and 5 μL were dispensed into each well. Plates were covered with clear seals and incubated at room temp overnight. […] Percent of control was calculated as follows: % Control=100×(RatioSample−Ratio0% Stimulation)/(Ratio100% Stimulation−Ratio0% Stimulation) where unstimulated cells (0% stimulation) were the negative control and stimulated cells (100% stimulation) were used as the positive control.

IRAK4 enzyme = target: T1, IRAK4 enzyme (Homo sapiens, UniProt Q9NWZ3); assay: IRAK4 Biochemical Assay (TR-FRET, STK1 KinEASE); conditions: 500 μM ATP, Table 2 second part (compounds 33-343), read-out: IC50 IRAK4-HTBS
T1 construct: purchased Carna Biosciences, Chuo-ku, Kobe, Japan
T1 sequence (Q9NWZ3 1-460): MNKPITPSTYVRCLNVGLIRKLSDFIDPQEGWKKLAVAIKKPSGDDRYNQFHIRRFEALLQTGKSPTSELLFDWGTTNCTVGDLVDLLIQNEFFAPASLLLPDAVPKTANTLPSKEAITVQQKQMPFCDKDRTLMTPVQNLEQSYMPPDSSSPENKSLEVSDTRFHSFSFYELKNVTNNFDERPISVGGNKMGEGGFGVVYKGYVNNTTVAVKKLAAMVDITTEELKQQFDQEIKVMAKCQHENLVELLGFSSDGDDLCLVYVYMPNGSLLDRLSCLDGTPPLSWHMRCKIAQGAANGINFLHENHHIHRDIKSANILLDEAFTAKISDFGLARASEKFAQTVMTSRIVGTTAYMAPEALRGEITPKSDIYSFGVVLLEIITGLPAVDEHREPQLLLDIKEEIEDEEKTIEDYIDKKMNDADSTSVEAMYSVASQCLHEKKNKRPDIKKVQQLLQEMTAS
Experimental: IRAK4 enzyme (Carna Biosciences, Chuo-ku, Kobe, Japan) activity was measured by detecting phosphorylated peptide substrate formation using an antibody against the phosphorylated peptide substrate. This is a time-resolved fluorescence resonance energy transfer (TR-FRET) immunoassay, based on the STK1 KinEASE Assay (Cisbio, Bedford, Massachusetts). The assay was designed as a simple two-step, endpoint assay (a 5 μl enzyme reaction followed by 5 μl stop and detect Solution) performed in ProxiPlate-384 Plus plates (Perkin Elmer, Waltham, Massachusetts). […] Compounds diluted in DMSO were spotted into 384 well plates using a Labcyte® Echo 550 Liquid Handling System prior to addition of IRAK4 enzyme and peptide substrate. Reaction solutions were delivered using a Multi-Flo (Bio-Tek Instruments). The enzyme and peptide solution was incubated with compound for 15 minutes at room temp before the reaction was initiated by the addition of ATP. The standard 5 μl reaction mixture contained 500 μM ATP, 2 μM peptide (STK1 Peptide), 0.75 nM of IRAK4 in reaction buffer (50 mM HEPES, pH 7.0, 0.02% NaN3, 0.01% BSA, 0.1 mM Orthovanadate, 5 mM MgCl2, 0.025% NP-40, 1 mM DTT). After 120 min of incubation at room temperature, 5 μl of Stop and Detect Solution (1:100 Cryptate labeled anti-phosphorylated peptide antibody solution and 125 nM Tracer in a 50 mM HEPES pH 7.0 detection buffer containing sufficient EDTA) was added. The plate was then further incubated for 60 minutes at room temperature and read on Envision 2103 Multilabeled reader (PerkinElmer) with excitation/emission/FRET emission at 340 nm/615 nm/665 nm, respectively. Fluorescence intensities at 615 nm and 665 nm emission wavelengths were expressed as a ratio (665 nm/615 nm).

SMILES | EC50 (TNFα) [nM] | IC50 (IRAK4 enzyme) [nM]
CC(C)(O)C(=O)N[C@H]1CC[C@@H](c2nnc(-c3cnc(-c4ccc5cc(C#N)cnn45)cc3NC3COC3)s2)CC1 [Compound 311, N-((1s,4s)-4-(5-(6-(3-cyanopyrrolo[1,2-b]pyridazin-7-yl)-4-(oxetan-3-ylamino)pyridin-3-yl)-1,3,4-thiadiazol-2-yl)cyclohexyl)-2-hydroxy-2-methylpropanamide] | 22.6 | 0.8
CC(C)(O)C(=O)N[C@@H]1[C@@H]2CC[C@H]1CN(c1nnc(-c3cnc(-c4ccc5cc(C#N)cnn45)cc3NC3COC3)s1)C2 [Example 87, N-((1R,5S,8s)-3-(5-(6-(3-cyanopyrrolo[1,2-b]pyridazin-7-yl)-4-(oxetan-3-ylamino)pyridin-3-yl)-1,3,4-thiadiazol-2-yl)-3-azabicyclo[3.2.1]octan-8-yl)-2-hydroxy-2-methylpropanamide] | 2.1 | 0.6
CNc1cc(-c2ccc3cc(C#N)cnn23)ncc1-c1nnc([C@H]2C[C@H](NC(C)=O)C2)s1 [Example 282, N-((1r,3r)-3-(5-(6-(3-cyanopyrrolo[1,2-b]pyridazin-7-yl)-4-(methylamino)pyridin-3-yl)-1,3,4-thiadiazol-2-yl)cyclobutyl)acetamide] | 22.4 | 0.59
CC(=O)N[C@@H]1[C@@H]2CN(c3nnc(-c4cnc(-c5ccc6cc(C#N)cnn56)cc4NC(C)C)s3)C[C@@H]21 [Compound 239, N-((1R,5S,6r)-3-(5-(6-(3-cyanopyrrolo[1,2-b]pyridazin-7-yl)-4-(isopropylamino)pyridin-3-yl)-1,3,4-thiadiazol-2-yl)-3-azabicyclo[3.1.0]hexan-6-yl)acetamide] | 4.9 | 0.11
CC(=O)N[C@]1(C)[C@@H]2CC[C@H]1CN(c1nnc(-c3cnc(-c4ccc5cc(C#N)cnn45)cc3N[C@H](C)C#N)s1)C2 [Example 157, N-((1R,5S,8S)-3-(5-(4-(((R)-1-cyanoethyl)amino)-6-(3-cyanopyrrolo[1,2-b]pyridazin-7-yl)pyridin-3-yl)-1,3,4-thiadiazol-2-yl)-8-methyl-3-azabicyclo[3.2.1]octan-8-yl)acetamide] | 1.8 | 1.03
C[C@H](C#N)Nc1cc(-c2ccc3cc(C#N)cnn23)ncc1-c1nnc(N2C[C@H]3CC[C@@H](C2)[C@@H]3NC(=O)C(C)(C)O)s1 [Example 86, N-((1R,5S,8S)-3-(5-(4-(((R)-1-cyanoethyl)amino)-6-(3-cyanopyrrolo[1,2-b]pyridazin-7-yl)pyridin-3-yl)-1,3,4-thiadiazol-2-yl)-3-azabicyclo[3.2.1]octan-8-yl)-2-hydroxy-2-methylpropanamide] | 0.6 | 0.65
CC(C)Nc1cc(-c2ccc3cc(C#N)cnn23)ncc1-c1nnc([C@H]2CC[C@H](NC(=O)C3CC3)CC2)s1 [Example 125, N-((1r,4r)-4-(5-(6-(3-cyanopyrrolo[1,2-b]pyridazin-7-yl)-4-(isopropylamino)pyridin-3-yl)-1,3,4-thiadiazol-2-yl)cyclohexyl)cyclopropanecarboxamide] | 5.4 | 0.25
CNC(=O)N[C@H]1CC[C@H](c2nnc(-c3cnc(-c4ccc5cc(C#N)cnn45)cc3NC(C)C)s2)CC1 [Example 140, 1-((1r,4r)-4-(5-(6-(3-cyanopyrrolo[1,2-b]pyridazin-7-yl)-4-(isopropylamino)pyridin-3-yl)-1,3,4-thiadiazol-2-yl)cyclohexyl)-3-mcthylurea] | 6.4 | 0.84
CC(=O)N[C@H]1[C@@H]2CC[C@H]1CN(c1nnc(-c3cnc(-c4ccc5cc(C#N)cnn45)cc3NC(C)C)s1)C2 [Example 39, N-((1R,5S,8r)-3-(5-(6-(3-cyanopyrrolo[1,2-b]pyridazin-7-yl)-4-(isopropylamino)pyridin-3-yl)-1,3,4-thiadiazol-2-yl)-3-azabicyclo[3.2.1]octan-8-yl)acetamide] | 10.4 | 0.89
CC(=O)N[C@]1(C)[C@@H]2CC[C@H]1CN(c1nnc(-c3cnc(-c4ccc5cc(C#N)cnn45)cc3NC(C)C)s1)C2 [Example 155, N-((1R,5S,8s)-3-(5-(6-(3-cyanopyrrolo[1,2-b]pyridazin-7-yl)-4-(isopropylamino)pyridin-3-yl)-1,3,4-thiadiazol-2-yl)-8-methyl-3-azabicyclo[3.2.1]octan-8-yl)acetamide] | 7.4 | 1.52
CC(=O)N[C@H]1CC[C@H](c2nnc(-c3cnc(-c4ccc5cc(C#N)cnn45)cc3NC3CCOCC3)s2)CC1 [Compound 255, N-((1r,4r)-4-(5-(6-(3-cyanopyrrolo[1,2-b]pyridazin-7-yl)-4-((tetrahydro-2H-pyran-4-yl)amino)pyridin-3-yl)-1,3,4-thiadiazol-2-yl)cyclohexyl)acetamide] | 5.1 | 0.63
COC(=O)N[C@H]1CC[C@@H](c2nnc(-c3cnc(-c4ccc5cc(C#N)cnn45)cc3NC3COC3)s2)CC1 [Example 205, methyl ((1s,4s)-4-(5-(6-(3-cyanopyrrolo[1,2-b]pyridazin-7-yl)-4-(oxetan-3-ylamino)pyridin-3-yl)-1,3,4-thiadiazol-2-yl)cyclohexyl)carbamate] | 20.1 | 0.62
CC(C)Nc1cc(-c2ccc3cc(C#N)cnn23)ncc1-c1nnc(N2C[C@H]3CC[C@@H](C2)[C@@H]3NC(=O)C2CCN(C)CC2)s1 [Example 100, N-((1R,5S,8s)-3-(5-(6-(3-cyanopyrrolo[1,2-b]pyridazin-7-yl)-4-(isopropylamino)pyridin-3-yl)-1,3,4-thiadiazol-2-yl)-3-azabicyclo[3.2.1]octan-8-yl)-1-methylpiperidine-4-carboxamide] | 2.1 | 0.8
CC(C)Nc1cc(-c2ccc3cc(C#N)cnn23)ncc1-c1nnc(N2C[C@H]3CC[C@@H](C2)[C@@H]3NC(=O)C(C)(C)C(=O)O)s1 [Example 97, 3-(((1R,5S,8s)-3-(5-(6-(3-cyanopyrrolo[1,2-b]pyridazin-7-yl)-4-(isopropylamino)pyridin-3-yl)-1,3,4-thiadiazol-2-yl)-3-azabicyclo[3.2.1]octan-8-yl)amino)-2,2-dimethyl-3-oxopropanoic acid] | 21.7 | 0.82
CC(=O)N[C@H]1[C@@H]2COC[C@H]1CN(c1nnc(-c3cnc(-c4ccc5cc(C#N)cnn45)cc3NC(C)C)s1)C2 [Example 182, N-((1R,5S,9r)-7-(5-(6-(3-cyanopyrrolo[1,2-b]pyridazin-7-yl)-4-(isopropylamino)pyridin-3-yl)-1,3,4-thiadiazol-2-yl)-3-oxa-7-azabicyclo[3.3.1]nonan-9-yl)acetamide] | 37.8 | 0.53
CC(C)Nc1cc(-c2ccc3cc(C#N)cnn23)ncc1-c1nnc(N2C[C@H]3CC[C@@H](C2)[C@@H]3NC(=O)C2(C)COC2)s1 [Example 94, N-((1R,5S,8s)-3-(5-(6-(3-cyanopyrrolo[1,2-b]pyridazin-7-yl)-4-(isopropylamino)pyridin-3-yl)-1,3,4-thiadiazol-2-yl)-3-azabicyclo[3.2.1]octan-8-yl)-3-methyloxetane-3-carboxamide] | 4 | 0.9

From patent US12060351B2, “Thiadiazole IRAK4 inhibitors” (Gilead Sciences, Inc., priority 2018, dated 2024)
